Measurements as given in US20110178118A1, “PALONOSETRON FOR THE TREATMENT OF CHEMOTHERAPY INDUCED EMESES” (priority 2002, published 2011).
Read-outs that look alike come from different tables or passages of the source. Marks after values point to notes of the source that are not given here.

Experiments:
cisplatin-induced emesis [1] = assay: Intravenous palonosetron vs ondansetron in cisplatin-treated dogs; assay type: in vivo; settings: 1.0 mg/kg intravenous; five-hour period following cisplatin 3.0 mg/kg
Method: (§1) The antiemetic effects of intravenously and orally administered palonosetron were assessed in male and female dogs (sexes combined). Antineoplastic agents employed in these experiments included cisplatin (3 mg/kg)), dacarbazine (30 mg/kg), mechlorethamine (0.4 mg/kg) and actinomycin D (0.15 mg/kg). […] Mean numbers of episodes were computed and the statistical significance of differences between treatment groups were determined with Dunnett's t test. Solutions of palonosetron and comparator drugs (ondansetron and granisetron) were prepared in distilled water. Vehicle control groups received distilled water. The therapeutic effects of intravenously and orally administered palonosetron were compared to those of ondansetron and vehicle in cisplatin-treated dogs.

cisplatin-induced emesis [2] = assay: Reversal of cisplatin-induced emesis, intravenous antiemetic one hour after cisplatin; assay type: in vivo, dogs; settings: for Emetic Episodes (mean ± SD): observed five hours
Method: as §1, with “In a different study, palonosetron and ondansetron were assessed for their relative abilities to reverse cisplatin-induced emesis. In these experiments dogs received intravenous injections” for “The therapeutic effects”, “palonosetron, ondansetron, or vehicle one hour after the intravenous administration” for “intravenously and orally administered palonosetron were compared to those”, “3.0 mg/kg cisplatin. Each animal was observed continuously for five hours following cisplatin administration for the number of emetic episodes.” for “ondansetron and vehicle in cisplatin-treated dogs.”

cisplatin-induced emesis [3] = assay: Anti-emetic effect, oral antiemetic one hour before cisplatin; assay type: in vivo, dogs; settings: for Emetic Episodes (mean ± SD): observed five hours
Method: The antiemetic effects of intravenously and orally administered palonosetron were assessed in male and female dogs (sexes combined). Antineoplastic agents employed in these experiments included cisplatin (3 mg/kg)), dacarbazine (30 mg/kg), mechlorethamine (0.4 mg/kg) and actinomycin D (0.15 mg/kg). […] Mean numbers of episodes were computed and the statistical significance of differences between treatment groups were determined with Dunnett's t test. Solutions of palonosetron and comparator drugs (ondansetron and granisetron) were prepared in distilled water. Vehicle control groups received distilled water. The observation of potency differential was further seen during an experiment in which oral dose-response relationships of palonosetron and ondansetron were compared in cisplatin-treated dogs. Palonosetron, ondansetron or vehicle control were administered by the oral route one hour prior to the administration of cisplatin. Each animal was observed continuously for five hours following cisplatin administration for the number of emetic episodes.

[4] = system: Mechlorethamine-Induced Emesis; assay type: in vivo, dogs; settings: 2 hours prior to mechlorethamine 0.4 mg/kg IV, observed 5 hours
[5] = system: Dacarbazine-Induced Emesis; assay: Antagonism of dacarbazine-induced emesis; assay type: in vivo, dogs; settings: 2 hours prior to dacarbazine 30.0 mg/kg IV, observed 5 hours
cisplatin-induced emesis [6] = assay: Duration of action in cisplatin-treated dogs; assay type: in vivo
Method: Mean numbers of episodes were computed and the statistical significance of differences between treatment groups were determined with Dunnett's t test. Solutions of palonosetron and comparator drugs (ondansetron and granisetron) were prepared in distilled water. Vehicle control groups received distilled water.

[7] = system: Actinomycin D-Induced Emesis; assay: Antagonism of actinomycin D-induced emesis; assay type: in vivo, dogs; settings: 2 hours prior to actinomycin D 0.15 mg/kg IV, observed 5 hours
[8] = intravenous antiemetic 0.01 mg/kg
[9] = intravenous antiemetic 0.03 mg/kg
[10] = intravenous antiemetic 0.1 mg/kg
[11] = intravenous antiemetic 0.3 mg/kg

Cc1nccn1CC1CCc2c(c3ccccc3n2C)C1=O (centres unmarked) [Ondansetron, reference compound]
mean number of emetic episodes (cisplatin-induced emesis [1]): 6.83
Emetic Episodes (mean ± SD) (cisplatin-induced emesis [2]; intravenous dose 1.0 μg/kg one hour after cisplatin 3.0 mg/kg IV): 16.16 ± 5.14 ^
Emetic Episodes (mean ± SD) (cisplatin-induced emesis [2]; intravenous dose 3.0 μg/kg one hour after cisplatin 3.0 mg/kg IV): 13.33 ± 4.17 ^
Emetic Episodes (mean ± SD) (cisplatin-induced emesis [2]; intravenous dose 10.0 μg/kg one hour after cisplatin 3.0 mg/kg IV): 13.33 ± 3.01 ^
Emetic Episodes (mean ± SD) (cisplatin-induced emesis [2]; intravenous dose 30.0 μg/kg one hour after cisplatin 3.0 mg/kg IV): 8.33 ± 3.20^
Emetic Episodes (mean ± SD) (cisplatin-induced emesis [2]; intravenous dose 100.0 μg/kg one hour after cisplatin 3.0 mg/kg IV): 4.83 ± 2.40^b
Emetic Episodes (mean ± SD) (cisplatin-induced emesis [2]; intravenous dose 300.0 μg/kg one hour after cisplatin 3.0 mg/kg IV): 1.00 ± 2.00^b
Emetic Episodes (mean ± SD) (cisplatin-induced emesis [2]; intravenous dose 1000.0 μg/kg one hour after cisplatin 3.0 mg/kg IV): 1.16 ± 0.40^b
statistically minimally effective dose level (cisplatin-induced emesis [2]; intravenous, one hour after cisplatin): 0.1 mg/kg
Emetic Episodes (mean ± SD) (cisplatin-induced emesis [3]; oral dose 1.0 μg/kg one hour before cisplatin): 15.50 ± 3.93
Emetic Episodes (mean ± SD) (cisplatin-induced emesis [3]; oral dose 3.0 μg/kg one hour before cisplatin): 14.83 ± 6.49
Emetic Episodes (mean ± SD) (cisplatin-induced emesis [3]; oral dose 10.0 μg/kg one hour before cisplatin): 12.66 ± 3.01
Emetic Episodes (mean ± SD) (cisplatin-induced emesis [3]; oral dose 30.0 μg/kg one hour before cisplatin): 18.33 ± 8.43
Emetic Episodes (mean ± SD) (cisplatin-induced emesis [3]; oral dose 100.0 μg/kg one hour before cisplatin): 10.50 ± 3.14
Emetic Episodes (mean ± SD) (cisplatin-induced emesis [3]; oral dose 300.0 μg/kg one hour before cisplatin): 3.16 ± 1.32^a
Emetic Episodes (mean ± SD) (cisplatin-induced emesis [3]; oral dose 1000.0 μg/kg one hour before cisplatin): 2.00 ± 2.09^a
minimally effective dose (significant reduction in episodes) (cisplatin-induced emesis [3]; oral, one hour before cisplatin): 0.3 mg/kg
Emetic Episodes (mean ± SD) [4, 8]: 5.83 ± 4.31
Emetic Episodes (mean ± SD) [4, 9]: 3.50 ± 2.07^c
Emetic Episodes (mean ± SD) [4, 10]: 5.33 ± 4.68
Emetic Episodes (mean ± SD) [4, 11]: 4.67 ± 1.63^c
Emetic Episodes (mean ± SD) ([4]; oral antiemetic 0.03 mg/kg): 5.67 ± 2.50
Emetic Episodes (mean ± SD) ([4]; oral antiemetic 0.1 mg/kg): 8.50 ± 3.15
Emetic Episodes (mean ± SD) ([4]; oral antiemetic 0.3 mg/kg): 2.83 ± 3.71^d
Emetic Episodes (mean ± SD) ([4]; oral antiemetic 1 mg/kg): 0.00 ± 0.00^d
Emetic Episodes (mean ± SD) [5, 8]: 11.50 ± 5.51 ^
Emetic Episodes (mean ± SD) [5, 9]: 8.17 ± 2.79^
Emetic Episodes (mean ± SD) [5, 10]: 4.83 ± 2.48^d
Emetic Episodes (mean ± SD) [5, 11]: 1.33 ± 0.82^d
Emetic Episodes (mean ± SD) ([5]; oral antiemetic 0.03 mg/kg): 10.83 ± 2.72 ^
Emetic Episodes (mean ± SD) ([5]; oral antiemetic 0.1 mg/kg): 6.17 ± 5.35^d
Emetic Episodes (mean ± SD) ([5]; oral antiemetic 0.3 mg/kg): 3.00 ± 3.03^d
Emetic Episodes (mean ± SD) ([5]; oral antiemetic 1 mg/kg): 0.17 ± 0.41^d
pretreatment time before cisplatin with reduced emetic episodes (cisplatin-induced emesis [6]; 0.15 mg/kg IV): only after a one-hour pretreatment period
Emetic Episodes (mean ± SD) (cisplatin-induced emesis [6]; 0.15 mg/kg IV, 1 hr pre-cisplatin 3.0 mg/kg IV): 7.83 ± 4.12^b
Emetic Episodes (mean ± SD) (cisplatin-induced emesis [6]; 0.15 mg/kg IV, 2 hr pre-cisplatin 3.0 mg/kg IV): 10.67 ± 5.28
Emetic Episodes (mean ± SD) (cisplatin-induced emesis [6]; 0.15 mg/kg IV, 4 hr pre-cisplatin 3.0 mg/kg IV): 12.67 ± 2.07
Emetic Episodes (mean ± SD) (cisplatin-induced emesis [6]; 0.15 mg/kg IV, 6 hr pre-cisplatin 3.0 mg/kg IV): 14.17 ± 6.79
Emetic Episodes (mean ± SD) (cisplatin-induced emesis [6]; 0.15 mg/kg IV, 8 hr pre-cisplatin 3.0 mg/kg IV): 15.50 ± 7.29
Emetic Episodes (mean ± SD) (cisplatin-induced emesis [6]; 0.15 mg/kg IV, 10 hr pre-cisplatin 3.0 mg/kg IV): 13.83 ± 4.58
Emetic Episodes (mean ± SD) (cisplatin-induced emesis [6]; 0.15 mg/kg IV, 12 hr pre-cisplatin 3.0 mg/kg IV): 22.00 ± 8.32
protective effects, pretreatment time prior to cisplatin (cisplatin-induced emesis [6]; earlier experiment, 0.3 mg/kg, IV): as long as seven hours
Emetic Episodes (mean ± SD) [7, 8]: 7.67 ± 2.25^d
Emetic Episodes (mean ± SD) [7, 9]: 14.67 ± 4.68 ^
Emetic Episodes (mean ± SD) [7, 10]: 12.67 ± 3.45 ^
Emetic Episodes (mean ± SD) [7, 11]: 5.83 ± 4.45^d
Emetic Episodes (mean ± SD) ([7]; oral antiemetic 0.03 mg/kg): 9.83 ± 7.52^
Emetic Episodes (mean ± SD) ([7]; oral antiemetic 0.1 mg/kg): 10.33 ± 4.84 ^
Emetic Episodes (mean ± SD) ([7]; oral antiemetic 0.3 mg/kg, one dog dropped): 4.20 ± 1.92^d
Emetic Episodes (mean ± SD) ([7]; oral antiemetic 1 mg/kg): 1.50 ± 1.38^d
